Data as given in US20230181539A1, “METHODS FOR THE TREATMENT OF CORONAVIRUS INFECTIONS” (INSERM (INSTITUT NATIONAL DE LA SANTÉ ET DE LA RECHERCHE …, priority 2020, published 2023).
Like-named read-outs stand apart in the source and are kept apart here.

Test system: SARS-CoV-2 strain BavPat1
Assay: Determination of EC50 and EC90: inhibition of SARS-CoV-2 viral RNA replication in Vero E6 cells (RT-qPCR)
Type: cell-based
Conditions: Severe acute respiratory syndrome coronavirus 2, Vero C1008, 48 h, read-out: EC50 (compound concentration required to inhibit viral RNA replication by 50%)

## CCn1c(CO)nn(-c2cc(O[C@@H](C)C(F)(F)F)c(C(=O)Nc3c(F)cccc3Cl)cc2F)c1=O [BAY-2402234, N-(2-Chloro-6-fluorophenyl)-4-[4-ethyl-3-(hydroxymethyl)-5-oxo-1,2,4-triazol-1-yl]-5-fluoro-2-[(2S)-1,1,1-trifluoropropan-2-yl]oxybenzamide]
Vero E6 cells, MOI 0.002, 2 days of culture, viral RNA in supernatant
  EC50: < 40 nM

## CCC(CC)COC(=O)[C@H](C)N[P@](=O)(OC[C@H]1O[C@@](C#N)(c2ccc3c(N)ncnn23)[C@H](O)[C@@H]1O)Oc1ccccc1 [remdesivir, Remdesivir]
  EC50: 2700 nM
